In patent US11845681B2, “Process and plant for treating wastewater containing micropollutants of pharmaceutical origin” (Cockerill Maintenance & Ingenierie S.A., priority 2018, dated 2023):

Experiments:
[1] = Purification efficiency of biologically activated carbon (BAC) columns C1 to C5; conditions: for average degradation: detailed analysis on 16 molecules, over column conditions; for effect of EBCT on degradation: longer EBCTs (e.g. 19 minutes)
Text: The activated carbon used was in GAC form, for example of the Norit 830W type (Cabot). According to the invention, however, several types of activated carbon may be used, by varying the nature of the carbon, the specific surface developed and the type of pores.
According to one embodiment, the GAC was conditioned for 2 months with the wastewater effluents coming from the MB-MBR before being placed in an acrylic glass column. Operation was monitored for approximately 5 months. The purpose of conditioning is to reduce the time before the breakthrough point of the filter, i.e. the moment when the adsorption capacity is exhausted and biodegradation is the dominant process.
The biological purification performance of micropollutants was evaluated according to the following methodology: • 1. Saturation of adsorption sites and verification by measuring the reduction in dissolved organic carbon; • 2. Evaluation of bacterial activity via measurements of oxygen consumption; • 3. Correlation analyzes between bacterial activity and micropollutant removal.
Based on the operational parameters selected for columns C1 to C5, the purification efficiencies of 12 of the 13 molecules indicative of the efficiency of the method are presented in FIG. 8.

fixed biomass = conditions: constant includes sorption, desorption and biodegradation; cited from earlier work
suspended biomass = conditions: constant includes sorption, desorption and biodegradation; cited from earlier work

Row | average degradation [1] | effect of EBCT on degradation [1] | Structure (SMILES) | Kbio, Biomass Fixed (fixed biomass) | Kbio, Biomass suspended (suspended biomass)
1 |  |  | CC(=O)Nc1ccc(S(=O)(=O)Nc2cc(C)on2)cc1 [N-acetylsulfamethoxazole] | 0.7-1.6 l/g biomass · day | 1.1-1.4 l/g biomass · day
2 |  |  | CC(C)NCC(O)COc1ccc(CC(N)=O)cc1 (stereo not shown) [Atenolol] | 0.53-0.67 l/g biomass · day | 0.67-0.9 l/g biomass · day
3 | around 50% | better degraded with longer EBCTs | O=C(O)Cc1ccccc1Nc1c(Cl)cccc1Cl [Diclofenac] | 1.3-1.7 l/g biomass · day | ≤0.1 l/g biomass · day
4 | around 50% | better degraded with longer EBCTs | CC[C@H]1OC(=O)[C@H](C)[C@@H](O[C@H]2C[C@@](C)(OC)[C@@H](O)[C@H](C)O2)[C@H](C)[C@@H](O[C@@H]2O[C@H](C)C[C@H](N(C)C)[C@H]2O)[C@](C)(OC)C[C@@H](C)C(=O)[C@H](C)[C@@H](O)[C@]1(C)O [Clarithromycin] | ≤0.2 l/g biomass · day | 0.18-0.29 l/g biomass · day
5 |  |  | NC(=O)N1c2ccccc2C=Cc2ccccc21 [Carbamazepine] | ≤0.1 l/g biomass · day | ≤0.1 l/g biomass · day

Row | Structure (SMILES) | average degradation [1] | effect of EBCT on degradation [1] | Kbio, Biomass Fixed (fixed biomass) | Kbio, Biomass suspended (suspended biomass)
6 | O=P1(N(CCCl)CCCl)NCCCO1 (stereo not shown) [cyclophosphamide] | around 50% | better degraded with longer EBCTs |  | 
